Test results published in PubChem BioAssay (NCI).
Values after ≈ are worked out from the molar mass of the structure shown.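 Following 48 hours of exposure in 96-well plates, responses at five concentrations were used to interpolate endpoints linearly. GI50 is the concentration that inhibits growth by half. At the TGI there is no net growth.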 Non-standard residues stand in square brackets, D forms with d. Residues, ends and D or L forms follow the SMILES beside them. *: point of attachment. hSer = N[CH](CCO)C(=O)O; Boc = CC(C)(C)OC(=O)*

What was measured:
Test in all cases: inhibition of tumour cell growth, NCI panel, 48 h
SF-539 CNS = system: SF-539 CNS
SK-MEL-28 melanoma = system: SK-MEL-28 melanoma
ACHN renal = system: ACHN renal
BT-549 breast = system: BT-549 breast
SN12C renal = system: SN12C renal
MDA-MB-435 = system: MDA-MB-435
HCT-116 colon = system: HCT-116 colon
EKVX NSCLC = system: EKVX NSCLC
MDA-MB-231 breast = system: MDA-MB-231 breast
NCI/ADR-RES ovarian = system: NCI/ADR-RES ovarian
HCT-15 colon = system: HCT-15 colon
NCI-H226 lung = system: NCI-H226 lung
RPMI-8226 leukemia = system: RPMI-8226 leukemia
PC-3 prostate = system: PC-3 prostate
OVCAR-3 ovarian = system: OVCAR-3 ovarian
NCI-H460 lung = system: NCI-H460 lung
HT29 colon = system: HT29 colon
RXF 393 renal = system: RXF 393 renal
U251 CNS = system: U251 CNS
TK-10 renal = system: TK-10 renal
SNB-75 CNS = system: SNB-75 CNS
A549 NSCLC = system: A549 NSCLC
HS 578T breast = system: HS 578T breast
A498 renal = system: A498 renal
UACC-62 melanoma = system: UACC-62 melanoma
COLO 205 colon = system: COLO 205 colon
OVCAR-8 ovarian = system: OVCAR-8 ovarian
UO-31 renal = system: UO-31 renal
SF-295 CNS = system: SF-295 CNS
CCRF-CEM leukemia = system: CCRF-CEM leukemia
HOP-62 NSCLC = system: HOP-62 NSCLC
DU-145 prostate = system: DU-145 prostate
SW-620 colon = system: SW-620 colon
HL-60(TB) leukemia = system: HL-60(TB) leukemia
OVCAR-4 ovarian = system: OVCAR-4 ovarian
MALME-3M melanoma = system: MALME-3M melanoma
786-0 renal = system: 786-0 renal
OVCAR-5 ovarian = system: OVCAR-5 ovarian
M14 melanoma = system: M14 melanoma
HOP-92 NSCLC = system: HOP-92 NSCLC
CAKI-1 renal = system: CAKI-1 renal
T-47D breast = system: T-47D breast
MCF7 breast = system: MCF7 breast
UACC-257 melanoma = system: UACC-257 melanoma
SK-OV-3 ovarian = system: SK-OV-3 ovarian
NCI-H23 lung = system: NCI-H23 lung
SK-MEL-2 melanoma = system: SK-MEL-2 melanoma
MOLT-4 leukemia = system: MOLT-4 leukemia
NCI-H522 lung = system: NCI-H522 lung
SR leukemia = system: SR leukemia
K-562 leukemia = system: K-562 leukemia
LOX IMVI melanoma = system: LOX IMVI melanoma
HCC-2998 colon = system: HCC-2998 colon
KM12 colon = system: KM12 colon
SK-MEL-5 melanoma = system: SK-MEL-5 melanoma
SNB-19 CNS = system: SNB-19 CNS
SF-268 CNS = system: SF-268 CNS

CCCCCCCCCc1cccc(N2C(N)=NC(N)=NC2(C)C)c1
TGI (SF-539 CNS): 2.1 µM | TGI (SK-MEL-28 melanoma): 3.44 µM | TGI (ACHN renal): 1.06 µM | TGI (BT-549 breast): 3.86 µM | TGI (SN12C renal): 2.33 µM | TGI (MDA-MB-435): 1.83 µM | TGI (HCT-116 colon): 1.15 µM | TGI (EKVX NSCLC): 10.5 µM | TGI (MDA-MB-231 breast): 3.37 µM | TGI (NCI/ADR-RES ovarian): 24.9 µM | TGI (HCT-15 colon): 0.169 µM | TGI (NCI-H226 lung): 61.2 µM | TGI (RPMI-8226 leukemia): > 100 µM | TGI (PC-3 prostate): > 35.7 µM | TGI (OVCAR-3 ovarian): 0.193 µM | TGI (NCI-H460 lung): > 100 µM | TGI (HT29 colon): 1.33 µM | TGI (RXF 393 renal): > 100 µM | TGI (U251 CNS): 0.62 µM | TGI (TK-10 renal): 1.48 µM | TGI (SNB-75 CNS): 25.9 µM | TGI (A549 NSCLC): 4.26 µM | TGI (HS 578T breast): 6.48 µM | TGI (A498 renal): 16.7 µM | TGI (UACC-62 melanoma): 4.07 µM | TGI (COLO 205 colon): 2.38 µM | TGI (OVCAR-8 ovarian): 16 µM | TGI (UO-31 renal): > 42.4 µM | TGI (SF-295 CNS): 74.6 µM | TGI (CCRF-CEM leukemia): > 100 µM | TGI (HOP-62 NSCLC): 1.24 µM | TGI (DU-145 prostate): 8.4 µM | TGI (SW-620 colon): 1.63 µM | TGI (HL-60(TB) leukemia): 1.71 µM | TGI (OVCAR-4 ovarian): 4.39 µM | TGI (MALME-3M melanoma): 8.22 µM | TGI (786-0 renal): 1.3 µM | TGI (OVCAR-5 ovarian): 4.67 µM | TGI (M14 melanoma): 1.53 µM | TGI (HOP-92 NSCLC): > 100 µM | TGI (CAKI-1 renal): 2.5 µM | TGI (T-47D breast): 5.75 µM | TGI (MCF7 breast): > 100 µM | TGI (UACC-257 melanoma): 2.13 µM | TGI (SK-OV-3 ovarian): > 33.1 µM | TGI (NCI-H23 lung): 0.277 µM | TGI (SK-MEL-2 melanoma): 4.65 µM

COCCC(NC(=O)C(CC(C)C)NC(=O)OC(C)(C)C)C(=O)OC (stereo not drawn) (Boc-Leu-[hSer](Me)-OMe; configuration not given here)
GI50 (MOLT-4 leukemia): 26 mg/L (≈ 72.1 µM) | TGI (MOLT-4 leukemia): 70.2 mg/L (≈ 195 µM) | GI50 (HCT-116 colon): 91.6 mg/L | GI50 (HCT-15 colon): 64.9 mg/L | GI50 (OVCAR-3 ovarian): 78.4 mg/L | GI50 (NCI-H522 lung): 31.3 mg/L | TGI (NCI-H522 lung): 80.1 mg/L | GI50 (SR leukemia): 31.2 mg/L (≈ 86.7 µM) | GI50 (NCI-H460 lung): 70.1 mg/L | GI50 (K-562 leukemia): 63.1 mg/L (≈ 175 µM) | GI50 (LOX IMVI melanoma): 65.1 mg/L | GI50 (OVCAR-8 ovarian): 88.3 mg/L | GI50 (HCC-2998 colon): 50.1 mg/L | GI50 (CCRF-CEM leukemia): 17.8 mg/L (≈ 49.4 µM) | GI50 (HL-60(TB) leukemia): 37 mg/L (≈ 103 µM) | GI50 (OVCAR-4 ovarian): 70.2 mg/L | GI50 (KM12 colon): 89.9 mg/L | GI50 (M14 melanoma): 48.6 mg/L | GI50 (MCF7 breast): 59.7 mg/L

Cc1cc(N(CCNc2ccnc3cc(Cl)ccc23)Cc2ccco2)nc(Cl)n1
GI50 (SF-539 CNS): 1.82 µM | TGI (SF-539 CNS): 3.32 µM | GI50 (SK-MEL-28 melanoma): 1.74 µM | TGI (SK-MEL-28 melanoma): 3.38 µM | GI50 (ACHN renal): 1.65 µM | TGI (ACHN renal): 3.02 µM | GI50 (BT-549 breast): 1.69 µM | TGI (BT-549 breast): 3.14 µM | GI50 (SK-MEL-5 melanoma): 1.72 µM | TGI (SK-MEL-5 melanoma): 3.13 µM | GI50 (SN12C renal): 1.79 µM | TGI (SN12C renal): 3.44 µM | GI50 (MDA-MB-435): 1.72 µM | TGI (MDA-MB-435): 3.37 µM | GI50 (HCT-116 colon): 1.48 µM | TGI (HCT-116 colon): 2.84 µM | GI50 (EKVX NSCLC): 1.61 µM | TGI (EKVX NSCLC): 3.58 µM | GI50 (MDA-MB-231 breast): 1.68 µM | TGI (MDA-MB-231 breast): 3.24 µM | GI50 (NCI/ADR-RES ovarian): 1.86 µM | TGI (NCI/ADR-RES ovarian): 3.96 µM | GI50 (HCT-15 colon): 1.64 µM | TGI (HCT-15 colon): 3.19 µM | GI50 (PC-3 prostate): 1.71 µM | TGI (PC-3 prostate): 3.18 µM | GI50 (OVCAR-3 ovarian): 1.61 µM | TGI (OVCAR-3 ovarian): 3.01 µM | GI50 (NCI-H522 lung): 1.75 µM | TGI (NCI-H522 lung): 3.71 µM | GI50 (NCI-H460 lung): 1.91 µM | TGI (NCI-H460 lung): 3.6 µM | GI50 (HT29 colon): 1.58 µM | TGI (HT29 colon): 3.24 µM | GI50 (RXF 393 renal): 1.27 µM | TGI (RXF 393 renal): 2.68 µM | GI50 (U251 CNS): 1.62 µM | TGI (U251 CNS): 3.01 µM | GI50 (TK-10 renal): 1.81 µM | TGI (TK-10 renal): 3.21 µM | GI50 (SNB-75 CNS): 1.47 µM | TGI (SNB-75 CNS): 2.97 µM | GI50 (A549 NSCLC): 1.85 µM | TGI (A549 NSCLC): 3.42 µM | GI50 (SNB-19 CNS): 1.91 µM | TGI (SNB-19 CNS): 3.74 µM | GI50 (HS 578T breast): 2.43 µM | TGI (HS 578T breast): 6.28 µM | GI50 (LOX IMVI melanoma): 1.59 µM | TGI (LOX IMVI melanoma): 3.07 µM | GI50 (A498 renal): 1.87 µM | TGI (A498 renal): 4.21 µM | GI50 (UACC-62 melanoma): 1.78 µM | TGI (UACC-62 melanoma): 3.38 µM | GI50 (COLO 205 colon): 1.71 µM | TGI (COLO 205 colon): 3.3 µM | GI50 (OVCAR-8 ovarian): 2.06 µM | TGI (OVCAR-8 ovarian): 4.42 µM | GI50 (UO-31 renal): 1.49 µM | TGI (UO-31 renal): 2.89 µM | GI50 (SF-295 CNS): 1.51 µM | TGI (SF-295 CNS): 3 µM | GI50 (HCC-2998 colon): 1.72 µM | TGI (HCC-2998 colon): 3.3 µM | GI50 (HOP-62 NSCLC): 1.68 µM | TGI (HOP-62 NSCLC): 3.38 µM | GI50 (SF-268 CNS): 2.16 µM | TGI (SF-268 CNS): 6.01 µM | GI50 (DU-145 prostate): 1.99 µM | TGI (DU-145 prostate): 4.15 µM | GI50 (SW-620 colon): 1.75 µM | TGI (SW-620 colon): 3.46 µM | GI50 (OVCAR-4 ovarian): 1.49 µM | TGI (OVCAR-4 ovarian): 2.95 µM | GI50 (MALME-3M melanoma): 1.78 µM | TGI (MALME-3M melanoma): 3.33 µM | GI50 (KM12 colon): 1.89 µM | TGI (KM12 colon): 3.95 µM | GI50 (786-0 renal): 1.57 µM | TGI (786-0 renal): 2.91 µM | GI50 (OVCAR-5 ovarian): 1.68 µM | TGI (OVCAR-5 ovarian): 3.23 µM | GI50 (M14 melanoma): 1.6 µM | TGI (M14 melanoma): 3.01 µM | GI50 (HOP-92 NSCLC): 1.47 µM | TGI (HOP-92 NSCLC): 2.94 µM | GI50 (T-47D breast): 1.52 µM | TGI (T-47D breast): 3.58 µM | GI50 (MCF7 breast): 1.65 µM | TGI (MCF7 breast): 3.32 µM | GI50 (UACC-257 melanoma): 1.9 µM | TGI (UACC-257 melanoma): 3.68 µM | GI50 (SK-OV-3 ovarian): 1.66 µM | TGI (SK-OV-3 ovarian): 3.13 µM | GI50 (NCI-H23 lung): 1.77 µM | TGI (NCI-H23 lung): 3.93 µM | GI50 (SK-MEL-2 melanoma): 1.9 µM | TGI (SK-MEL-2 melanoma): 3.83 µM
